Source: patent US20250295693A1, “HYBRID TUMOR/CANCER THERAPY BASED ON TARGETING THE RESOLUTION OF OR INDUCING TRANSCRIPTION-REPLICATION CONFLICTS (TRCS)” (Julius-Maximilians-Universität Würzburg, priority 2021, published 2025)
Entries after “also recorded” stand apart in the source; their conditions may differ.

Legend:
[1] = system: CDK12 kinase; details: cited from earlier work
[2] = biological target: Aurora-A alleles, T217D and T217E (Homo sapiens, UniProt O14965, T217D); details: cited from earlier work
Chain of Aurora-A alleles, T217D and T217E (O14965 whole entry T217D): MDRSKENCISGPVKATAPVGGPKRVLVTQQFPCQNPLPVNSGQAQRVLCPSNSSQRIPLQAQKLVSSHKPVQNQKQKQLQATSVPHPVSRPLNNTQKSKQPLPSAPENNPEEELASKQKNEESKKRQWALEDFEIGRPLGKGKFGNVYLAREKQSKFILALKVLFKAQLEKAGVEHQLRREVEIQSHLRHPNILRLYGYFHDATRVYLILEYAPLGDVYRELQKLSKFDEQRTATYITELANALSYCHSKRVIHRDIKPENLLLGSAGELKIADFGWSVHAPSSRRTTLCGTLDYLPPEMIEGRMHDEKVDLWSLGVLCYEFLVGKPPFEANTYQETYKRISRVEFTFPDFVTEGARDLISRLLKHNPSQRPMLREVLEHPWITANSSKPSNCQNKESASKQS

[3] = system: human LS174 colo-rectal tumor cells; experiment: Extracellular acidification rate (lactate secretion), Seahorse XF96; type: cell-based
[4] = system: MYC; experiment: MYC expression in cells with ectopic expression of murine ATP1A1; type: cell-based
Description: FIG. 15. The effect of CG on MYC protein levels is mediated by inhibition of the NA/K pump. A: Depletion of the ATP1A1 subunit of the NA/K pump leads to the reduction of MYC protein levels. B: Ectopic expression of murine ATP1A1 renders the expression of MYC insensitive from the addition of cymarin, a prototypical KG.
(§1) After treatment for 24 h, cells were harvested in RIPA buffer containing protease and phosphatase inhibitor cocktails. The protein concentration was determined using BCA or Bradford assay. 15 μg of protein was loaded on a 10% SDS gel. After electrophoresis, proteins were transferred to 0.45 μm PVDF membrane and incubated with primary antibodies at 4° C. overnight. The signal was detected using peroxidase-conjugated species-specific secondary antibodies and visualized at LAS-4000 Luminescent Image Analyzer (Fujifilm).
Further, it was shown that the depletion of the ATP1A1 subunit of the NA/K pump leads to the reduction of MYC protein levels (FIG. 15A).

[5] = system: MYC protein; experiment: Immunoblot of MYC protein in human tumor cells; type: cell-based; details: 24 h treatment
Description: FIG. 14. […] A: Immunoblot of tumor cells after 24 h treatment with Cymarin. B: Quantification of MYC protein levels in human pancreatic tumor cells and colorectal tumor cells.
as §1
An immunoblot of tumor cells after 24 h treatment with cymarin was made (FIG. 14A). Quantification of MYC protein levels in human pancreatic tumor cells and colorectal tumor cells was performed (FIG. 14B).

[6] = system: human CRC cell lines; experiment: Colony assays of CRC cells in culture; type: cell-based; details: low concentrations of CX-5461 combined with ATR inhibitor (AZD6738); p53-independent
Description: (§2) Deregulation of the WNT pathway in CRC not only deregulates transcription by RNAPII, but also by RNA polymerase I, which transcribes ribosomal RNAs in the nucleolus; this leads to enhanced synthesis of ribosomal RNA (Morral, Cell stem cell 26, 2020, 845-61). This is mediated by a beta-catenin dependent upregulation of multiple components of the ribosomal RNA synthesis machinery (FIG. 4a). Further to these observations, the effect of CX-5461, an inhibitor of RNA polymerase I transcription on the growth of CRC metastases, was analyzed. […] This observation was confirmed. […] Since there is an ongoing debate on the primary mechanism of CX-5461 action (Bruno, PNAS 117, 2020, 4053-60; Sanij, Nat Commun 11, 2020, 2641; Xu, Nat Commun 8, 2017, 14432), genetic work to validate its precise mechanism of action, and to further confirm that combining POL1 and ATR inhibition is a valid strategy to induce TRCs, is performed.

[7] = system: RPA194 and RAD9; experiment: Proximity ligation assays for RPA194 and RAD9; type: cell-based
Description: as §2

[8] = system: phosphoKap1; experiment: EdU incorporation/Hoechst plots with phosphoKap1 staining (DNA damage in S-phase); type: cell-based; details: b279: in conjunction with ATR inhibition
Description: as §2

[9] = system: murine CRC organoids; experiment: Growth of CRC organoids, CX-5461 plus ATR inhibitor; type: cell-based; details: low concentrations of CX-5461 combined with ATR inhibitor (AZD6738)
Description: as §2

[10] = system: pancreas carcinoma cells; experiment: Microscopy-based siRNA screen for DNA damage in pancreas carcinoma cells; type: cell-based; details: siRNA hits, low concentration of ATR inhibitor
Description: FIG. 1. […] Similar assays (not shown) establish that CDK12 acts downstream of PAF1 in this pathway. e: DNA damage and colony assays in response to combined inhibition of CDK12 and ATR.
Targeting the mechanisms that resolve TRCs is considered a viable strategy to inflict tumor cell-specific DNA damage and/or to sensitize tumors to immune cell-mediated killing. Several of the mechanisms described herein appear to be specific for MYCN-driven tumors. For example, (c-)MYC (herein also just “MYC”) binds only very weakly to Aurora-A (Dauch, Nat Med 22, 2016, 744-53). Therefore, pathways have been identified that resolve TRCs in models of MYC driven tumors, which encompasses the vast majority of all tumors. Specifically, there was a focus on conflicts in a cell line established from the KPC model of pancreas carcinoma (Hingorani, loc.cit.). This reflects human PDAC. In this model, an siRNA screen of 86 candidate genes was performed using several parallel microscope-based assays to measure the occurrence of TRCs (FIG. 1).

Cn1cc(-n2cnc3c(NCc4nc5cc(Cl)c(Cl)cc5[nH]4)nc(N4CCOCC4)nc32)cn1 [SR4835]
inhibition of the CDK12 kinase [1]: specific and potent inhibitor

COc1cc(Nc2ncc3c(n2)-c2ccc(Cl)cc2C(c2c(F)cccc2OC)=NC3)ccc1C(=O)O [Alisertib]
resistance of cells [2]: resistant

CO[C@H]1C[C@H](O[C@H]2CC[C@]3(C=O)[C@H]4CC[C@]5(C)[C@@H](C6=CC(=O)OC6)CC[C@]5(O)[C@@H]4CC[C@]3(O)C2)O[C@H](C)[C@H]1O [cymarin, Cymarin]
extracellular acidification rate (lactate secretion) ([3]; LS174 cells): significantly reduced | effect on extracellular acidification rate ([3]; overexpression of the murine 1 isoform of Na+/K+-ATPase): can be reduced | expression of MYC on addition of cymarin [4]: insensitive | amount of MYC protein [5]: reduce the amount of MYC protein

Cc1cnc(CNC(=O)c2c(=O)c3ccc(N4CCCN(C)CC4)nc3n3c2sc2ccccc23)cn1 [CX-5461]
colony formation [6]: suppression of growth; also recorded: almost completely suppressed | conflicts with DNA replication: proximity between RPA194 and RAD9 [7]: increased proximity | DNA damage during DNA replication (S-phase) [8]: induction of DNA damage; also recorded: massive DNA damage | colony formation / growth of organoids [9]: suppression of growth; also recorded: almost completely suppressed

C[C@@H]1COCCN1c1cc(C2([S@](C)(=N)=O)CC2)nc(-c2cc[nH]c3nccc2-3)n1 [AZD6738]
DNA damage [10]: strongly increased DNA damage
